Laboratory results from PubChem BioAssay AID1259246 (Broad Institute, 2017).
Inconclusive results are not listed. Activity calls are given as the source filed them.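 How the source made its calls: active means valid dose-response fit whose half-maximal growth-inhibiting concentration is at or below a set limit above the top tested dose; inconclusive means flat fit with effect between 30 and 70%, or poor fit; inactive means half-maximal concentration above a set limit.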

Assay: antibacterial activity against Clostridioides difficile – 10-point retest, dose response (AID 1259246)
Details: Clostridioides difficile clinical isolate growth, OD600, 24 h

Compound | activity change, negative = inhibition (at 120 µM (top of the series)) | also measured
C[C@H]1CN([C@@H](C)CO)S(=O)(=O)c2ccc(C#CC3CCCCC3)cc2O[C@H]1CN(C)Cc1cccnc1 | 19.1% (inactive) | 
COc1ccc(NC(=O)Nc2cccc3c2O[C@@H](CN(C)Cc2ccc(Oc4ccccc4)cc2)[C@H](C)CN([C@@H](C)CO)C3=O)cc1 | 18.2% (inactive) | 
CNC[C@@H]1Oc2ccc(N)cc2CC(=O)N([C@H](C)CO)C[C@H]1C |  | activity change, negative = inhibition (at 60 µM (top of the series)): 0.918% (inactive)
C[C@@H]1CN([C@H](C)CO)C(=O)Cc2cc(NC(=O)Nc3ccccc3)ccc2O[C@@H]1CN(C)Cc1ccc(-c2ccccc2)cc1 |  | activity change, negative = inhibition (at 135 µM (top of the series)): 12.7% (inactive)
CC(C)CC#Cc1ccc2c(c1)O[C@H](CN(C)CC1CCOCC1)[C@H](C)CN([C@H](C)CO)S2(=O)=O | 14.5% (inactive) | 
O=C(C[C@H]1C[C@@H]2c3cc(NC(=O)NC4CCCC4)ccc3O[C@@H]2[C@@H](CO)O1)NCc1ccc2c(c1)OCO2 | -10.4% (inactive) | 
C[C@@H]1CN([C@@H](C)CO)C(=O)Cc2cc(NS(=O)(=O)c3cccs3)ccc2O[C@@H]1CN(C)S(=O)(=O)c1ccc(Cl)cc1 | 32.8% (inactive) | 
C[C@H](CO)N1C[C@H](C)[C@@H](CN(C)Cc2cccnc2)Oc2cc(Br)ccc2S1(=O)=O | -1.18% (inactive) | 
O=C(C[C@H]1C[C@@H]2c3cc(NC(=O)C4CCC4)ccc3O[C@@H]2[C@H](CO)O1)NCc1ccc(Cl)cc1 |  | activity change, negative = inhibition (at 135 µM (top of the series)): 4.22% (inactive)
C[C@H](CO)N1C[C@H](C)[C@@H](CN(C)C(=O)NC2CCCCC2)Oc2c(NC(=O)Nc3ccc(C(F)(F)F)cc3)cccc2C1=O | 28.9% (inactive) | 
O=C(C[C@@H]1C[C@H]2c3cc(NC(=O)C4CCC4)ccc3O[C@H]2[C@@H](CO)O1)NCc1ccc(Cl)cc1 |  | activity change, negative = inhibition (at 135 µM (top of the series)): 6.13% (inactive)
CNC[C@@H]1Oc2cc(C#CCC(C)C)ccc2S(=O)(=O)N([C@@H](C)CO)C[C@H]1C | 21.5% (inactive) | 
C[C@@H]1CN([C@H](C)CO)C(=O)c2cc(C#CCc3ccccc3)cnc2O[C@H]1CN(C)CC1CCCC1 |  | activity change, negative = inhibition (at 60 µM (top of the series)): 19.2% (inactive)
C[C@@H]1CN([C@H](C)CO)C(=O)Cc2cc(NC(=O)CCCN(C)C)ccc2O[C@H]1CN(C)Cc1ccc(Oc2ccccc2)cc1 | 17.1% (inactive) | 
CNC[C@@H]1Oc2cc(Br)ccc2S(=O)(=O)N([C@H](C)CO)C[C@H]1C | 2.27% (inactive) | 
C[C@@H]1CN([C@H](C)CO)C(=O)Cc2cc(NS(C)(=O)=O)ccc2O[C@@H]1CN(C)Cc1ccc(-c2ccccc2)cc1 |  | activity change, negative = inhibition (at 135 µM (top of the series)): 20% (inactive)
CC(C)C#Cc1ccc2c(c1)O[C@H](CN(C)CC1CCOCC1)[C@H](C)CN([C@H](C)CO)S2(=O)=O | 10.2% (inactive) | 
COc1ccc(-c2ccc([C@H]3[C@H](C#N)N(C(=O)C4CC4)[C@H]3CO)cc2)cc1 |  | activity change, negative = inhibition (at 135 µM (top of the series)): -0.086% (inactive)
C[C@H](CO)N1C[C@H](C)[C@@H](CN(C)Cc2ccc(-c3ccccc3)cc2)Oc2c(NC(=O)Nc3ccc4c(c3)OCO4)cccc2C1=O | 2.74% (inactive) | 
C[C@@H]1CN([C@@H](C)CO)C(=O)Cc2cc(NC(=O)CCCN(C)C)ccc2O[C@H]1CN(C)C(=O)Nc1ccccc1 | -1.61% (inactive) | 

Compound | activity change, negative = inhibition (at 120 µM (top of the series)) | also measured
C[C@H](CO)N1C[C@H](C)[C@@H](CN(C)C(=O)NC2CCCCC2)Oc2c(NC(=O)Nc3ccccc3)cccc2C1=O | 12.2% (inactive) | 
CO[C@@H]1CN(C)C(=O)c2ccc(NC(=O)c3nc4ccccc4s3)cc2OC[C@H](C)N(Cc2ccncc2)C[C@@H]1C | 10.8% (inactive) | 
C[C@@H]1CN([C@@H](C)CO)C(=O)Cc2cc(NC(=O)CCCN(C)C)ccc2O[C@H]1CN(C)C |  | activity change, negative = inhibition (at 135 µM (top of the series)): -6.21% (inactive)
COc1ccc(NC(=O)N(C)C[C@H]2Oc3ccc(NC(=O)C4CC4)cc3CC(=O)N([C@H](C)CO)C[C@H]2C)cc1 | -3.71% (inactive) | 
COc1ccccc1-c1ccc2c(c1)O[C@H](CN(C)Cc1ccc3c(c1)OCO3)[C@H](C)CN([C@H](C)CO)S2(=O)=O |  | activity change, negative = inhibition (at 60 µM (top of the series)): -2.89% (inactive)
O=C(C[C@H]1C[C@@H]2c3cc(NS(=O)(=O)c4ccc(F)cc4)ccc3O[C@@H]2[C@H](CO)O1)NCc1ccc(-c2ccccc2)cc1 | 25.5% (inactive) | 
C[C@H](CO)N1C[C@H](C)[C@H](CN(C)Cc2cccnc2)Oc2cc(C#CC3CCCCC3)ccc2S1(=O)=O | 24.1% (inactive) | 
C[C@H](CO)N1C[C@H](C)[C@H](CN(C)Cc2ccc(-c3ccccc3)cc2)Oc2c(NC(=O)Nc3ccc4c(c3)OCO4)cccc2C1=O | 24.3% (inactive) | 
C[C@H]1CN([C@@H](C)CO)C(=O)Cc2cc(NC(=O)C3CC3)ccc2O[C@H]1CN(C)Cc1ccc(-c2ccccc2)cc1 | 18.3% (inactive) | 
C[C@H]1CN([C@@H](C)CO)S(=O)(=O)c2ccc(C3=CCCCC3)cc2O[C@@H]1CN(C)Cc1cccnc1 | 13.2% (inactive) | 
O=C(C[C@@H]1C[C@H]2c3cc(NC(=O)Nc4ccc(F)cc4)ccc3O[C@H]2[C@H](CO)O1)NC1CCCCC1 |  | activity change, negative = inhibition (at 60 µM (top of the series)): 6.83% (inactive)
O=C(C[C@H]1C[C@@H]2c3cc(NC(=O)C4CCC4)ccc3O[C@@H]2[C@@H](CO)O1)NCc1ccncc1 |  | activity change, negative = inhibition (at 60 µM (top of the series)): -0.413% (inactive)
Cc1ccc(S(=O)(=O)N[C@H]2CC[C@H](CCNS(=O)(=O)Cc3ccccc3)O[C@H]2CO)cc1 | -4.09% (inactive) | 
C[C@@H]1CN([C@@H](C)CO)C(=O)c2cccc(NC(=O)Nc3ccc(C(F)(F)F)cc3)c2O[C@H]1CN(C)C(=O)NC1CCCCC1 | 15.3% (inactive) | 
COc1ccc(CN(C)C[C@@H]2OCCCC[C@H](C)Oc3ccc(NC(=O)Nc4cccc5ccccc45)cc3C(=O)N([C@@H](C)CO)C[C@H]2C)cc1 | 42% (inactive) | 
C[C@@H]1CN([C@H](C)CO)S(=O)(=O)c2ccc(/C=C/c3ccccc3)cc2O[C@H]1CN(C)C |  | activity change, negative = inhibition (at 60 µM (top of the series)): 5.46% (inactive)
C[C@H](CO)N1C[C@H](C)[C@@H](CN(C)C(=O)NC2CCCCC2)Oc2c(NC(=O)Nc3cccc4ccccc34)cccc2C1=O | 23.7% (inactive) | 
O=C(C[C@H]1C[C@H]2c3cc(NC(=O)C4CCC4)ccc3O[C@H]2[C@H](CO)O1)NCc1ccc(Cl)cc1 | 6.93% (inactive) | 
C[C@@H]1CN([C@H](C)CO)C(=O)c2cc(NC(=O)c3ccccc3)ccc2O[C@@H](C)CCCCO[C@H]1CN(C)S(=O)(=O)c1ccc(F)cc1 | 10.1% (inactive) | 
CCCNC(=O)C[C@@H]1CC[C@H]2[C@H](COc3ccc(NC(=O)c4cccc(Cl)c4)cc3C(=O)N2C)O1 |  | activity change, negative = inhibition (at 60 µM (top of the series)): 10.3% (inactive)

Compound | activity change, negative = inhibition (at 120 µM (top of the series)) | also measured
C[C@@H]1CCCCO[C@@H](CN(C)S(=O)(=O)c2ccc(F)cc2)[C@@H](C)CN([C@H](C)CO)C(=O)c2cc(NC(=O)Nc3cccc4ccccc34)ccc2O1 |  | activity change, negative = inhibition (at 135 µM (top of the series)): 14.6% (inactive)
C[C@@H]1CN([C@H](C)CO)C(=O)Cc2cc(NC(=O)C3CC3)ccc2O[C@@H]1CN(C)Cc1ccc(-c2ccccc2)cc1 |  | activity change, negative = inhibition (at 135 µM (top of the series)): 20.9% (inactive)
C[C@@H]1CCCCO[C@H](CN(C)C(=O)CCC(F)(F)F)[C@H](C)CN([C@@H](C)CO)C(=O)c2cc(NC(=O)c3ccncc3)ccc2O1 | 14.3% (inactive) | 
C[C@H]1CCCCO[C@@H](CN(C)S(=O)(=O)c2ccc(F)cc2)[C@@H](C)CN([C@@H](C)CO)C(=O)c2cc(NC(=O)Nc3cccc4ccccc34)ccc2O1 | 42.1% (inactive) | 
O=C(C[C@H]1C[C@H]2c3cc(NC(=O)Nc4ccc(F)cc4)ccc3O[C@H]2[C@H](CO)O1)NC1CCCCC1 | 2.71% (inactive) | 
C[C@@H]1CN([C@H](C)CO)C(=O)Cc2cc(NC(=O)CCC(F)(F)F)ccc2O[C@H]1CN(C)Cc1ccc(-c2ccccc2)cc1 |  | activity change, negative = inhibition (at 135 µM (top of the series)): 15.9% (inactive)
CO[C@@H]1CN(C)C(=O)c2cc(NC(=O)c3nc4ccccc4s3)ccc2OC[C@@H](C)N(Cc2ccncc2)C[C@@H]1C | 14.6% (inactive) | 
C[C@@H]1CN([C@H](C)CO)C(=O)c2cc(NS(=O)(=O)c3ccccc3)ccc2O[C@@H](C)CCCCO[C@H]1CN(C)S(=O)(=O)c1ccc(F)cc1 | 12.7% (inactive) | 
C[C@H](CO)N1C[C@H](C)[C@@H](CN(C)C(=O)NC2CCCCC2)Oc2c(NC(=O)Nc3ccc(F)cc3)cccc2C1=O | 9.73% (inactive) | 
COc1ccc(NC(=O)Nc2cccc3c2O[C@H](CN(C)Cc2ccc(Oc4ccccc4)cc2)[C@H](C)CN([C@H](C)CO)C3=O)cc1 | -0.653% (inactive) | 
C[C@H](CO)N1C[C@H](C)[C@@H](CN(C)S(=O)(=O)c2ccc(F)cc2)OCCCC[C@H](C)Oc2ccc(NC(=O)Nc3cccc4ccccc34)cc2C1=O | 16.3% (inactive) | 
COc1ccc(CNC(=O)C[C@H]2C[C@@H]3c4cc(NC(=O)C5CCC5)ccc4O[C@@H]3[C@@H](CO)O2)cc1 |  | activity change, negative = inhibition (at 60 µM (top of the series)): -1.06% (inactive)
O=C(C[C@H]1C[C@@H]2c3cc(NC(=O)C4CCC4)ccc3O[C@@H]2[C@@H](CO)O1)NCc1ccc2c(c1)OCO2 |  | activity change, negative = inhibition (at 135 µM (top of the series)): -9.69% (inactive)
COc1ccc(S(=O)(=O)N(C)C[C@H]2Oc3c(NS(=O)(=O)c4ccccc4)cccc3C(=O)N([C@H](C)CO)C[C@@H]2C)cc1 | 28% (inactive) | 
CO[C@H]1CN(C)C(=O)c2ccc(NC(=O)c3nc4ccccc4s3)cc2OC[C@H](C)NC[C@@H]1C | -6.99% (inactive) | 
C[C@@H]1CCCCO[C@H](CN(C)S(=O)(=O)c2ccc(F)cc2)[C@H](C)CN([C@H](C)CO)C(=O)c2cc(NC(=O)Nc3cccc4ccccc34)ccc2O1 | 23.1% (inactive) | 
C[C@@H]1CN([C@@H](C)CO)S(=O)(=O)c2ccc(/C=C/c3ccccc3)cc2O[C@H]1CN(C)C(=O)c1ccncc1 | 14.4% (inactive) | 
C[C@@H]1CN([C@@H](C)CO)C(=O)Cc2cc(NC(=O)c3ccncc3)ccc2O[C@@H]1CN(C)Cc1ccc(-c2ccccc2)cc1 | 19.7% (inactive) | 
